Laboratory results: patent US9353116B2, “Methods and compositions for kinase inhibition” (THE REGENTS OF THE UNIVERSITY OF CALIFORNIA, priority 2010, dated 2016)

How the values were obtained:
c-Src-ES2 (T338C/V323A) = c-Src-ES2 (T338C/V323A) (Gallus gallus (Chicken), UniProt P00523, T338C/V323A); experiment: In vitro kinase assay, c-Src-ES2; assay type: biochemical
Description: In vitro kinase assays for c-Src variants were performed in 50 mM Tris (pH 8.0), 10 mM MgCl2 and 1 mg/mL BSA. When obtaining kinetic parameters (kcat, Km) kinase and peptide substrate (IYGEFKKK) (SEQ ID NO:51) concentrations were 2 nM and 500 μM, respectively, while ATP concentrations ranged from 2000-0.655 μM. Addition of nonradioactive ATP supplemented with ^32P ATP (3,000 Ci/mmol, NEN) was used to initiate kinase reactions. Time points were selected such that product formation never exceeded 10%. Reactions were quenched by spotting 3 μL quantities onto phosphocellulose sheets (P81, Whatman). Afterwards, the sheets were washed 3×5 minutes in 0.5% phosphoric acid and dried. Radioactivity was measured by phosphorimaging and recorded on a Typhoon fluorescence imager (Molecular Dynamics). Data were plotted as rate (min^−1) versus ATP concentration and fitted to the Michaelis-Menten equation, v=[(kcat)[S]]/(Km+[S]), using Kaleidagraph software (Synergy) to extract kinetic parameters. When obtaining IC50 values for the inhibitors, 2% (v/v) DMSO was included in kinase reactions. In these cases ATP, peptide, and enzyme concentrations were 15 nM, 100 μM and 5 nM, respectively, while inhibitor concentrations ranged from 10,000-0.610 nM. In all cases, a ten-minute preincubation step between the kinase and the inhibitor preceded addition of ATP and a fifteen-minute reaction. The data was fitted to a sigmoidal dose-response curve using Prism 4.0c (GraphPad Software) to obtain IC50 values.

T338C c-Src [1] = biological target: T1, T338C c-Src (Gallus gallus (Chicken), UniProt P00523, T338C); experiment: Gel filtration and kinetic assay, T338C c-Src; assay type: biochemical; details: 23 μM inhibitor, 25 minutes, then PD10 desalting
Description: (§1) Inhibitors (final concentration 23 μM) were incubated with c-Src variants (final concentration 11.5 μM) in kinase reaction buffer (50 mM Tris pH 8, 100 mM NaCl, 1 mM DTT, 5% glycerol, 5% DMSO) for 25 minutes at room temperature. The solutions (2.6 mL total) were then passed over PD10 desalting columns (GE Healthcare) using the kinase reaction buffer for elution. Src concentrations were calculated using the extinction coefficient for c-Src (51.140 mM^−1cm^−1) {Seeliger, 2005 #100}. Kinase assays were performed as described in the experimental section at a final enzyme concentration of 10 nM.

WT c-Src = WT c-Src (Gallus gallus (Chicken), UniProt P00523); experiment: Gel filtration and kinetic assay, WT c-Src; assay type: biochemical; details: 23 μM inhibitor, 25 minutes, then PD10 desalting
Description: as §1

T338C c-Src [2] = biological target: T1, T338C c-Src; experiment: Full protein mass spectrometry of covalent labeling; assay type: binding; details: two equivalents of inhibitor
Description: Protein labeling conditions: Kinase labeling reactions were performed by incubating 30 μL quantities of c-Src variants (in 50 mM Tris pH 8, 100 mM NaCl, 1 mM DTT, 5% glycerol) with two equivalents of inhibitor in DMSO (final DMSO concentration=2.4%). The covalent labeling reaction was quenched by removing 4 μL and adding it to 31 μL of 0.1% formic acid. The sample was then analyzed by ES1-oa-TOF mass spectrometry.

In the case of `CC(C)n1nc(Cc2cccc(C(=O)CF)c2)c2c(N)ncnc21` [Compound 13, 1-(3-((4-amino-1-isopropyl-1H-pyrazolo[3,4-d]pyrimidin-3-yl)methyl)phenyl)-2-fluoroethanone], the IC50 (c-Src-ES2 (T338C/V323A); ES2 = T338C/V323A, read-out: c-Src variant IC50 (nM) ES2) was 67 nM, the “change of inhibitor potency upon second-site Val323 mutations” value (c-Src-ES2 (T338C/V323A); c-Src-ES2 and c-Src-ES3 relative to c-Src-ES1) was “Enhanced inhibitor potency” and the “fold increase in potency with V323A mutation” value (c-Src-ES2 (T338C/V323A); c-Src-ES2 relative to c-Src-ES1) was 5 fold. The “inhibitory activity after gel filtration, T338C c-Src” value (T338C c-Src [1]) was “retained”, the “inhibitory activity after gel filtration, WT c-Src” value (WT c-Src) was “lost” and the “covalent labeling / adduct formation by full protein mass spectrometry” value (T338C c-Src [2]) was “not observed”.
